Assay results reported in patent publication US20190233442A1, “SELECTIVE ESTROGEN RECEPTOR DOWN-REGULATORS (SERDS)” (Xavier University of Louisiana, priority 2016, published 2019).

Tests used:
MCF-7 = assay: Cytotoxicity in breast cancer cell lines (MCF-7); format: cell-based; settings: MCF-7 cells
MCF-7/TamR = assay: Cytotoxicity in breast cancer cell lines (MCF-7/TamR); format: cell-based; settings: MCF-7/TamR cells
T47D/PKCα = assay: Cytotoxicity in breast cancer cell lines (T47D/PKCα); format: cell-based; settings: T47D/PKCα cells
BT474 = assay: Cytotoxicity in breast cancer cell lines (BT474); format: cell-based; settings: BT474 cells
[1] = biological target: T1, estrogen receptor α (ERα) (Homo sapiens, UniProt P03372); assay: Western blot of ER protein expression (down-regulation); format: cell-based
T1 construct: endogenous in cells; host or cells: MCF-7
T1 sequence (P03372 1-595): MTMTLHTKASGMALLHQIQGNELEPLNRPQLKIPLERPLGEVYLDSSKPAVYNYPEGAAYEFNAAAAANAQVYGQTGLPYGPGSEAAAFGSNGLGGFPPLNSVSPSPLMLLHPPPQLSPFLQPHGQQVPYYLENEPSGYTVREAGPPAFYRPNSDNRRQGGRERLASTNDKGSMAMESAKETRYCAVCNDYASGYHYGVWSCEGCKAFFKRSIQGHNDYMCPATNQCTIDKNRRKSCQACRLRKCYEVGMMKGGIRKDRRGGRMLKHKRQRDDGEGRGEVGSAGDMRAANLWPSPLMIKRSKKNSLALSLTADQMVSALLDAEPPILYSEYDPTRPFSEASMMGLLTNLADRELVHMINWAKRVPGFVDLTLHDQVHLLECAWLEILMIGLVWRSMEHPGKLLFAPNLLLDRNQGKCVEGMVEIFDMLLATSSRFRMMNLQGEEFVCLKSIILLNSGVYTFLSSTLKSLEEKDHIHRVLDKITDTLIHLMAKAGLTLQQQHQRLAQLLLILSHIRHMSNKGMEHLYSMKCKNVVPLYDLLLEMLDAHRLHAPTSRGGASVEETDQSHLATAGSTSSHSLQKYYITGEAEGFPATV

[2] = cited from earlier work
[3] = biological target: T1, estrogen receptor α (ERα); assay: Binding to estrogen receptor α; settings: FIG. 15

Compound	ER protein expression ([1]; FIG. 14, cell line not stated)	binding to estrogen receptor α (ERα) [3]	IC50 (MCF-7; Homo sapiens, MCF7) [µM]	IC50 (MCF-7/TamR; Homo sapiens, MCF7) [µM]	IC50 (T47D/PKCα; Homo sapiens) [µM]	IC50 (BT474; Homo sapiens, BT-474) [µM]	also measured
4-Hydroxytamoxifen [reference compound]	–	–	–	–	–	–	IC50 (MCF-7): 0.0033 µM; IC50 (MCF-7/TamR): 21.1 µM; IC50 (T47D/PKCα): 0.54 µM; IC50 (BT474): 1.43 µM
CC/C(=C(\c1ccc(/C=C/C(=O)O)cc1)c1ccc(B2OC(C)(C)C(C)(C)O2)cc1)c1ccccc1 [SERD 6]	–	–	7.73	4.53	6.54	80.5	–

Continued, in another order:

ER protein expression ([1]; FIG. 14, cell line not stated)	binding to estrogen receptor α (ERα) [3]	Compound	IC50 (MCF-7; Homo sapiens, MCF7) [µM]	IC50 (MCF-7/TamR; Homo sapiens, MCF7) [µM]	IC50 (T47D/PKCα; Homo sapiens) [µM]	IC50 (BT474; Homo sapiens, BT-474) [µM]	also measured
dramatically downregulated	–	C[C@]12CC[C@@H]3c4ccc(O)cc4C[C@@H](CCCCCCCCC[S+]([O-])CCCC(F)(F)C(F)(F)F)[C@H]3[C@@H]1CC[C@@H]2O (some centres unmarked) [Fulvestrant]	–	–	–	–	peak blood concentration ([2]; higher dose of 500 mg, FINDER1 and FINDER2 clinical trials): < 25 ng/mL; time to reach steady state concentration in patient plasma ([2]; higher dose of 500 mg): 1 month; bioavailability if administered orally ([2]; oral): very poor bioavailability; time to reach steady state serum concentration ([2]; standard intramuscular (i.m.) injection): 3-4 months
–	high affinity	CCC(=C(c1ccc(/C=C/C(=O)O)cc1)c1ccc(B(O)O)cc1)c1ccccc1 [SERD 4]	1.8	1.2	–	–	ER protein expression ([1]; MCF-7 cells, FIG. 13): dramatically downregulated
dramatically downregulated	high affinity	C[C@]12CC[C@@H]3c4ccc(B(O)O)cc4C[C@@H](CCCCCCCCC[S+]([O-])CCCC(F)(F)C(F)(F)F)[C@H]3[C@@H]1CC[C@@H]2O (some centres unmarked) [SERD 9]	0.0032	0.044	0.37	0.39	–
